Like-named read-outs stand apart in the source and are kept apart here.
Key:
[1] = tested on: NS5A chimeric genotype 1b Con1 replicon with genotype 3a S52 strain NS5A gene; experiment: Replicon assay, genotype 3a NS5A chimera; assay type: cell-based, HCV; settings: Hepatitis C virus
[2] = tested on: NS5A chimeric genotype 2a JFH-1 replicon with genotype 2b MD2b-1 strain NS5A gene (M31 present); experiment: Replicon assay, genotype 2b NS5A chimera; assay type: cell-based, HCV; settings: Hepatitis C virus
Method in brief: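 Cells carrying the stable or transiently transfected (Huh-Lunet) dicistronic RLuc replicons received 3-fold serial compound dilutions from 10 mM DMSO stocks. After 72 h, cells were lysed and Renilla luciferase read. DMSO served as the no-inhibition control and ITMN-191 above 100×EC50 as the positive control; EC50 by non-linear regression.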

[3] = tested on: stable HCV 1b RLuc replicon cells (dicistronic genotype 1b Con1 replicon); experiment: Renilla luciferase HCV replicon reporter assay, genotype 1b; assay type: cell-based; settings: Hepatitis C virus, 72 h, stable 1b Con1 RLuc replicon cells, 72 hours; read-out: 1b
Method in brief: (§1)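 Antiviral EC50 was determined in HCV replicon cells (stable RLuc lines for 1a H77, 1b Con1, 2a JFH-1 with NS5A L31; J6 NS5A chimera with M31) treated 72 h with compound. Renilla luciferase was then quantified.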

[4] = tested on: stable HCV 2a JFH-1 Rluc replicon cells (L31 present in NS5A); experiment: Renilla luciferase HCV replicon reporter assay, genotype 2a JFH-1; assay type: cell-based; settings: Hepatitis C virus
Method in brief: as §1

[5] = tested on: NS5A chimeric genotype 2a JFH-1 replicon with genotype 2a J6 strain NS5A gene (M31 present); experiment: Replicon assay, genotype 2a J6 NS5A chimera; assay type: cell-based, HCV; settings: Hepatitis C virus
Method in brief: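 EC50 was fitted by non-linear regression to Renilla luciferase signal after 72 h of exposure to 3-fold serially diluted compound (10 mM DMSO stocks). Controls were DMSO (none) and ITMN-191 above 100×EC50 (full). Chimeric 2a replicons were used either stable or transiently transfected into Huh-Lunet cells.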

[6] = tested on: stable HCV 1a RLuc replicon cells (dicistronic genotype 1a H77 replicon); experiment: Renilla luciferase HCV replicon reporter assay, genotype 1a; assay type: cell-based; settings: Hepatitis C virus, 72 h, stable 1a H77 RLuc replicon cells
Method in brief: as §1

[7] = tested on: NS5A chimeric genotype 1b Con1 replicon with genotype 4a ED43 strain NS5A gene; experiment: Replicon assay, genotype 4a NS5A chimera; assay type: cell-based, HCV; settings: Hepatitis C virus
[8] = read-out: 3a (s) (nM), genotype 3a NS5A chimeric replicon, stable replicon cells (s)
[9] = read-out: 3a (s), (s), activity range
[10] = read-out: 3a (t) (nM), genotype 3a NS5A chimeric replicon, transiently transfected (t)
[11] = read-out: 3a (t), transiently transfected (t) into Huh-Lunet cells, activity range
[12] = 2BS, read-out: 2b (s), stably replicating replicon cells (s), activity range
[13] = read-out: 2b (s) (nM), genotype 2b MD2b-1 NS5A chimeric replicon (M31), stably replicating replicon cells (s)
[14] = read-out: 2a JFH (nM), genotype 2a JFH-1 replicon (L31 in NS5A), stable cells
[15] = read-out: 2a JFH, stable 2a JFH-1 Rluc replicon cells, L31 in NS5A, activity range
[16] = read-out: 2a J6 (t) (nM), genotype 2a J6 NS5A chimeric replicon (M31), transiently transfected (t) into Huh-Lunet cells
[17] = read-out: 2a J6 (t), transiently transfected (t) into Huh-Lunet cells, activity range
[18] = read-out: 4a (s) (nM), genotype 4a NS5A chimeric replicon, stable replicon cells (s)
[19] = read-out: 4a (s), (s), activity range

Row | SMILES | EC50 [1, 8] [nM] | EC50 [1, 9] [nM] | EC50 [1, 10] [nM] | EC50 [1, 11] [nM] | EC50 [2, 12] [nM] | EC50 [2, 13] [nM] | EC50 [3] [nM] | EC50 [4, 14] [nM] | EC50 [4, 15] [nM] | EC50 [5, 16] [nM] | EC50 [5, 17] [nM] | EC50 [6] [nM] | EC50 ([6]; activity range) [nM] | EC50 [7, 18] [nM] | EC50 [7, 19] [nM]
1 | COC(=O)N[C@H](C(=O)N1[C@@H](C)CC[C@H]1c1nc2ccc3cc4c(cc3c2[nH]1)OCc1cc(-c2cnc([C@@H]3C[C@H](C)CN3C(=O)[C@@H](NC(=O)OC)C3CCOCC3)[nH]2)ccc1-4)C(C)C [EJ, methyl[(2S)-1-{(2S,5S)-2-[9-(2-{(2S,4S)-1-[(2S)-2-[(methoxycarbonyl)amino]-2-(tetrahydro-2H-pyran-4-yl)acetyl]-4-methylpyrrolidin-2-yl}-1H-imidazol-5-yl)-1,11-dihydroisochromeno[4′,3′:6,7]naphtho[1,2-d]imidazol-2-yl]-5-methylpyrrolidin-1-yl}-3-methyl-1-oxobutan-2-yl]carbamate] | 0.081 | < 0.1 | 0.046 | < 0.1 | 0.1 to 0.999 | 0.112 | 0.039 | 0.028 | < 0.1 | 0.041 | < 0.1 | 0.016 | < 0.1 | 0.017 | < 0.1
2 | CC[C@H](C)[C@H](NC(=O)OC)C(=O)N1C[C@@H](COC)C[C@H]1c1nc2ccc3cc4c(cc3c2[nH]1)OCc1cc(-c2cnc([C@@H]3CC[C@H](C)N3C(=O)[C@@H](NC(=O)OC)[C@@H](C)OC)[nH]2)ccc1-4 [ED, methyl{(2S,3S)-1-[(2S,4S)-2-(9-{2-[(2S,5S)-1-{(2S,3R)-3-methoxy-2-[(methoxycarbonyl)amino]butanoyl}-5-methylpyrrolidin-2-yl]-1H-imidazol-5-yl}-1,11-dihydroisochromeno[4′,3′:6,7]naphtho[1,2-d]imidazol-2-yl)-4-(methoxymethyl)pyrrolidin-1-yl]-3-methyl-1-oxopentan-2-yl}carbamate] | 0.099 | < 0.1 |  |  | 0.1 to 0.999 | 0.241 | 0.029 | 0.011 | < 0.1 | 0.021 | < 0.1 | 0.015 | < 0.1 | 0.025 | < 0.1
3 | COC(=O)N[C@H](C(=O)N1[C@@H](C)CC[C@H]1c1ncc(-c2ccc3c(c2)COc2cc4c(ccc5nc([C@@H]6CC[C@H](C)N6C(=O)[C@@H](NC(=O)OC)[C@H](C)OC)[nH]c54)cc2-3)[nH]1)[C@H](C)OC [GE] | 0.445 | 0.1 to 0.999 |  |  | 0.1 to 0.999 | 0.772 | 0.062 | 0.104 | 0.1 to 0.999 | 0.508 | 0.1 to 0.999 | 0.043 | < 0.1 | 0.026 | < 0.1
4 | COC(=O)NC(C(=O)N1[C@@H](C)CC[C@H]1c1nc2ccc3cc4c(cc3c2[nH]1)OCc1cc(-c2cnc([C@@H]3CC[C@H](C)N3C(=O)[C@@H](NC(=O)OC)[C@@H](C)OC)[nH]2)ccc1-4)C1CCOCC1 (stereo partly drawn) [EG, methyl{2-[(2S,5S)-2-(9-{2-[(2S,5S)-1-{(2S,3R)-3-methoxy-2-[(methoxycarbonyl)amino]butanoyl}-5-methylpyrrolidin-2-yl]-1H-imidazol-5-yl}-1,11-dihydroisochromeno[4′,3′:6,7]naphtho[1,2-d]imidazol-2-yl)-5-methylpyrrolidin-1-yl]-2-oxo-1-(tetrahydro-2H-pyran-4-yl)ethyl}carbamate] | 0.076 | < 0.1 | 0.103 | 0.1 to 0.999 | < 0.1 | 0.072 | 0.045 | 0.022 | < 0.1 | 0.023 | < 0.1 | 0.036 | < 0.1 | 0.016 | < 0.1
5 | CC[C@H]1CC[C@@H](c2ncc(-c3ccc4c(c3)COc3cc5c(ccc6nc([C@@H]7CC[C@H](C)N7C(=O)[C@@H](NC(=O)OC)[C@@H](C)OC)[nH]c65)cc3-4)[nH]2)N1C(=O)[C@@H](NC(=O)OC)[C@@H](C)OC [EM, methyl[(2S,3R)-1-{(2S,5S)-2-ethyl-5-[5-(2-{(2S,5S)-1-[N-(methoxycarbonyl)-O-methyl-L-threonyl]-5-methylpyrrolidin-2-yl}-1,11dihydroisochromeno[4′,3′:6,7]naphtho[1,2-d]imidazol-9-yl)-1H-imidazol-2-yl]pyrrolidin-1-yl}-3-methoxy-1-oxobutan-2-yl]carbamate] | 0.061 | < 0.1 |  |  | < 0.1 | 0.082 | 0.02 | 0.012 | < 0.1 | 0.043 | < 0.1 | 0.013 | < 0.1 | 0.008 | < 0.1
6 | COC[C@H]1C[C@@H](c2nc3ccc4cc5c(cc4c3[nH]2)OCc2cc(-c3cnc([C@@H]4CC[C@H](C)N4C(=O)[C@@H](NC(=O)OC)C(C)C)[nH]3)ccc2-5)N(C(=O)[C@@H](NC(=O)OC)C2CCOCC2)C1 [EF, methyl[(1 S)-2-[(2S,4S)-2-(9-{2-[(2S,5S)-1-{(2S)-2-[(methoxycarbonyl)amino]-3-methylbutanoyl}-5-methylpyrrolidin-2-yl]-1H-imidazol-5-yl}-1,11 dihydroisochromeno[4′,3′:6,7]naphtho[1,2-d]imidazol-2-yl)-4-(methoxymethyl)pyrrolidin-1-yl]-2-oxo-1-(tetra hydro-2H-pyran-4-yl)ethyl]carbamate] | 0.12 | 0.1 to 0.999 | 0.102 | 0.1 to 0.999 | < 0.1 | 0.091 | 0.053 | 0.014 | < 0.1 | 0.023 | < 0.1 | 0.039 | < 0.1 | 0.02 | < 0.1
7 | CC[C@H](C)[C@H](NC(=O)OC)C(=O)N1[C@@H](C)CC[C@H]1c1ncc(-c2ccc3c(c2)COc2cc4c(ccc5nc([C@@H]6CC[C@H](C)N6C(=O)[C@@H](NC(=O)OC)[C@@H](C)CC)[nH]c54)cc2-3)[nH]1 [EC, Methyl {(2S,3S)-1-[(2S,5S)-2-(9-{2-[(2S,5S)-1-{(2S,3S)-2-[(methoxycarbonyl)amino]-3-methylpentanoyl}-5-methylpyrrolidin-2-yl]-1H-imidazol-5-yl}-1,11-dihydroisochromeno[4′,3′:6,7]naphtho[1,2-d]imidazol-2-yl)-5-methylpyrrolidin-1-yl]-3-methyl-1-oxopentan-2-yl}carbamate] | 0.029 | < 0.1 |  |  | 0.1 to 0.999 | 0.4 | 0.017 | 0.015 | < 0.1 | 0.429 | 0.1 to 0.999 | 0.008 | < 0.1 | 0.004 | < 0.1

Reference: patent US10800789B2, “Antiviral compounds” (Gilead Pharmasset LLC, priority 2012, dated 2020)
